The results in this text go back to patent US7626031B2, “Substituted 3-(diarylmethylene)indolin-2-ones and methods of their use” (Symphony Evolution, Inc., priority 2002, dated 2009).

The target in one assay is Flt-1 (Homo sapiens, UniProt P17948). Kind of assay: Kinase assay, Flt-1 (33P-ATP incorporation or luciferase-coupled ATP consumption). The class given is biochemical. The settings on record: read-out: Flt1 IC50. The procedure:
(§1) Kinase assays were performed by measurement of incorporation of γ-^33P ATP into immobilized myelin basic protein (MBP). […] Plates were washed 3× with 100 μl TBS. […] Compound dilutions were performed in DMSO and added to assay wells to a final DMSO concentration of 1%. Each data point was measured in duplicate, and at least two duplicate assays were performed for each individual compound determination. Enzyme was added to final concentrations of 10 nM or 20 nM, for example. A mixture of unlabeled ATP and γ-^33P ATP was added to start the reaction (2×10^6 cpm of γ-^33P ATP per well (3000 Ci/mmole) and either 10 μM or 30 μM unlabeled ATP, typically. The reactions were carried out for 1 hour at room temperature with shaking. Plates were washed 7× with TBS, followed by the addition of 50 μl/well scintillation fluid (Wallac). Plates were read using a Wallac Trilux counter. This is only one format of such assays, various other formats are possible, as known to one of ordinary skill in the art.
(§2) Tyrosine kinase activity is determined by 1) measurement of kinase-dependent ATP consumption by in the presence of a generic substrate such as, polyglutamic acid, tyrosine, 4:1 (pEY), by luciferase/luciferin-mediated chemiluminescence or; 2) incorporation of radioactive phosphate derived from ^33P-ATP into a generic substrate which has been adsorbed onto the well surface of polystyrene microtiter plates. Phosphorylated substrate products are quantified by scintillation spectrometry.
(§3) Kinase activity and compound inhibition are investigated using one or more assay formats. The ATP concentrations for each assay are selected to be close to the Michaelis-Menten constant (KM) for each individual kinase. Dose-response experiments are performed at 10 different inhibitor concentrations in a 384-well plate format. […] Exemplary kinase assays are described below. KDR Assay

In a further assay the target is PDGFR alpha (Homo sapiens, UniProt P16234). Briefly: Kinase assay, PDGFR alpha (33P-ATP incorporation or luciferase-coupled ATP consumption). The settings on record: read-out: PDGF-R-A IC50. The class given is biochemical. The procedure: as §1, §2, §3
For assay [1], the target named is T1, KDR (baculovirus expressed human KDR kinase domain D807-V1356) (Homo sapiens, UniProt P35968).
T1 construct: human KDR kinase domain D807-V1356; host or cells: baculovirus expression system
Kind of assay: biochemical. The method, then:
as §3
KDR biochemical activity was assessed using a Luciferase-Coupled Chemiluminescent Kinase assay (LCCA) format. Kinase activity was measured as the percent ATP remaining following the kinase reaction. Remaining ATP was detected by luciferase-luciferin-coupled chemiluminescence. […] The mixture is incubated at ambient temperature for 4 hours after which 20 uL luciferase-luciferin mix is added and the chemiluminescent signal read using a Wallac Victor^2 reader.

A further assay has as its target EGFR (Homo sapiens, UniProt P00533). Briefly: Kinase assay, EGFR (33P-ATP incorporation or luciferase-coupled ATP consumption). The class given is biochemical. The procedure:
as §1, §2, §3

The target in the next assay is IRK (Homo sapiens, UniProt P06213). Kind of assay: Kinase assay, IRK. The class given is biochemical. The procedure:
as §3

The target in another assay is EphA2 (Homo sapiens, UniProt P29317). Kind of assay: Kinase assay, EphA2 (33P-ATP incorporation or luciferase-coupled ATP consumption). The class given is biochemical. The procedure:
as §1, §2, §3

Another assay concerns the target Fyn (Homo sapiens, UniProt P06241). Briefly: Kinase assay, Fyn. The class given is biochemical. The procedure: as §3
For another assay, the target named is FGFR1 (Homo sapiens, UniProt P11362). Briefly: Kinase assay, FGFR1 (33P-ATP incorporation or luciferase-coupled ATP consumption). The class given is biochemical. The method, then:
as §1, §2, §3

Sequence of Fyn (P06241 whole entry, species assumed): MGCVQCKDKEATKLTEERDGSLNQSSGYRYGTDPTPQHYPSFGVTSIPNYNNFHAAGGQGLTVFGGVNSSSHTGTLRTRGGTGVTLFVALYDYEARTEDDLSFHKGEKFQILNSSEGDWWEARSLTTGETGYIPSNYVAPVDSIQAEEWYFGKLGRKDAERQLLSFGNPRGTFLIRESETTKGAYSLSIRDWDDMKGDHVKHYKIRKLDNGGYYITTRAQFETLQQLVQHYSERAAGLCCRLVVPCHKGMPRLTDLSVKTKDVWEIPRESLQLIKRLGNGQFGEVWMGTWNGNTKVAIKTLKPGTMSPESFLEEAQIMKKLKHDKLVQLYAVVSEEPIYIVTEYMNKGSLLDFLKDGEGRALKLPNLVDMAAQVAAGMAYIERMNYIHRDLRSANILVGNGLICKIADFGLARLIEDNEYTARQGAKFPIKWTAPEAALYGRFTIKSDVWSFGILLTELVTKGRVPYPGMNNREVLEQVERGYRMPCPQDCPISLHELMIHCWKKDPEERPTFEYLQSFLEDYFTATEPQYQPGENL
Sequence of IRK (P06213 28-1382): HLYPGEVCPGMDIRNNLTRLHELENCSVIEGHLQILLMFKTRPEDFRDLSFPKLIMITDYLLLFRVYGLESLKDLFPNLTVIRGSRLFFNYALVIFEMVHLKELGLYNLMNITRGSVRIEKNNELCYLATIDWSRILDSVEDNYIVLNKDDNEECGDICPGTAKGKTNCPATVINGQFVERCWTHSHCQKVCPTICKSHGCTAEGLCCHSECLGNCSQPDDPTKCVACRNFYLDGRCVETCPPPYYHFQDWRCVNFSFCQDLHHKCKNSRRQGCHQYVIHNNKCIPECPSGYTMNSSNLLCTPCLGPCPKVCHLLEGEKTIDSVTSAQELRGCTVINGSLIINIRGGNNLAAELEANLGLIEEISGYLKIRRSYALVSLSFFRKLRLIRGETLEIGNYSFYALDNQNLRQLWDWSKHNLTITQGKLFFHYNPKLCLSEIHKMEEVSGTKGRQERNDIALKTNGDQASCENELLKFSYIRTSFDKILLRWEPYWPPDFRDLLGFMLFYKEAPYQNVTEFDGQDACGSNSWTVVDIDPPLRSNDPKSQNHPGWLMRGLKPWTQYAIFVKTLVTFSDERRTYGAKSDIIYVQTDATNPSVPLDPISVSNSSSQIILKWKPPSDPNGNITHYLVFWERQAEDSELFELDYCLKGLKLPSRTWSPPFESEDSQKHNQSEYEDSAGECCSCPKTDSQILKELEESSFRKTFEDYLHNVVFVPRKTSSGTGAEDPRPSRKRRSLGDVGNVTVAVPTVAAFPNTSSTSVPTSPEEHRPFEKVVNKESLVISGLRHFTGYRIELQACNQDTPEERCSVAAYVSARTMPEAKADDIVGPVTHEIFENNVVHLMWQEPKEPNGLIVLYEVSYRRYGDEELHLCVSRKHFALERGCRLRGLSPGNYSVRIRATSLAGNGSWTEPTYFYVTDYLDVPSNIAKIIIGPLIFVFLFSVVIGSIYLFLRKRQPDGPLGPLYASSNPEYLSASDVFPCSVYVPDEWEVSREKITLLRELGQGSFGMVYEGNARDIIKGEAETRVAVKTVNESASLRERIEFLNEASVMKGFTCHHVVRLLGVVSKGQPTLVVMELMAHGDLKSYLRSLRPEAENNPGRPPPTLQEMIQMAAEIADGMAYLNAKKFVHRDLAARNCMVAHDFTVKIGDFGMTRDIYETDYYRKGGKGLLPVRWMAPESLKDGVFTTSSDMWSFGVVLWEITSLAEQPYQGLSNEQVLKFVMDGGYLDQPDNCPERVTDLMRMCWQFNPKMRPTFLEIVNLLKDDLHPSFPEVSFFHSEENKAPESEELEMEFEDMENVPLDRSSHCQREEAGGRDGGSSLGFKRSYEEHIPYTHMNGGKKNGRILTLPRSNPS
T1 sequence (P35968 807-1356): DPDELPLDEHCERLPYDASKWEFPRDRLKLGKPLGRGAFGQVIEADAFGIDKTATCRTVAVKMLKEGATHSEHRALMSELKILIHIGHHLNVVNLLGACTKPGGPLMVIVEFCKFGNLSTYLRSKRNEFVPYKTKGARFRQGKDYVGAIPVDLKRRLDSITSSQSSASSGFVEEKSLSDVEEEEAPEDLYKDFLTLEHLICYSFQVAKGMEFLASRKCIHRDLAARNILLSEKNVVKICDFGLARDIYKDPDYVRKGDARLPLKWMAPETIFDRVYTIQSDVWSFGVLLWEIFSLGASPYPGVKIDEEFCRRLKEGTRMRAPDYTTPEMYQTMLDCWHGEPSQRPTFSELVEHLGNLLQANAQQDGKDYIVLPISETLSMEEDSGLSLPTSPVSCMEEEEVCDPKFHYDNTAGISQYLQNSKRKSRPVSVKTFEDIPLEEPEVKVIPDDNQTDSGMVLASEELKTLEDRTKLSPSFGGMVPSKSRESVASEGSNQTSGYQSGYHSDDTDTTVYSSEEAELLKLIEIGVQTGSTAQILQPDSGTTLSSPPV
Sequence of FGFR1 (P11362 22-822, species assumed): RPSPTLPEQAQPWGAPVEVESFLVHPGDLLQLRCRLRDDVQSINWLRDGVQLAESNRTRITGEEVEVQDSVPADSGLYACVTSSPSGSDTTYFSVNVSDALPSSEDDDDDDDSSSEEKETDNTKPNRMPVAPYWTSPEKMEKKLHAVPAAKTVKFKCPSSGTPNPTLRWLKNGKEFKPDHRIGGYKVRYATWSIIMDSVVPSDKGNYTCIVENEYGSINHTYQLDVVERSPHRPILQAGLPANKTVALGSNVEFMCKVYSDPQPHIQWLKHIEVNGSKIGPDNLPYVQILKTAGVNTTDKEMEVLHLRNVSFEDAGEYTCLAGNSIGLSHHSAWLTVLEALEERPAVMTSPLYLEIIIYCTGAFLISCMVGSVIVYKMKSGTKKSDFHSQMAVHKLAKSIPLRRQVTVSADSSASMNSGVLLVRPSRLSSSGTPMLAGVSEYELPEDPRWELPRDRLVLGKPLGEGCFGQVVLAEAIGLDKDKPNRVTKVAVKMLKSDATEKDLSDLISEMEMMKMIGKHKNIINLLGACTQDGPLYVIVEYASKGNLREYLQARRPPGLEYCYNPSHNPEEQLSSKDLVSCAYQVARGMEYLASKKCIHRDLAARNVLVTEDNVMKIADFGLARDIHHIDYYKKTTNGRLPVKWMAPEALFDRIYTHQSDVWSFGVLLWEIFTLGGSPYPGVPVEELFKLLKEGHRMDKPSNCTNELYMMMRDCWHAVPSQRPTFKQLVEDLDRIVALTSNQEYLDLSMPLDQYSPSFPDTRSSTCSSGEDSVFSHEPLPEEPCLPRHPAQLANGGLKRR
Sequence of EGFR (P00533 25-1210, species assumed): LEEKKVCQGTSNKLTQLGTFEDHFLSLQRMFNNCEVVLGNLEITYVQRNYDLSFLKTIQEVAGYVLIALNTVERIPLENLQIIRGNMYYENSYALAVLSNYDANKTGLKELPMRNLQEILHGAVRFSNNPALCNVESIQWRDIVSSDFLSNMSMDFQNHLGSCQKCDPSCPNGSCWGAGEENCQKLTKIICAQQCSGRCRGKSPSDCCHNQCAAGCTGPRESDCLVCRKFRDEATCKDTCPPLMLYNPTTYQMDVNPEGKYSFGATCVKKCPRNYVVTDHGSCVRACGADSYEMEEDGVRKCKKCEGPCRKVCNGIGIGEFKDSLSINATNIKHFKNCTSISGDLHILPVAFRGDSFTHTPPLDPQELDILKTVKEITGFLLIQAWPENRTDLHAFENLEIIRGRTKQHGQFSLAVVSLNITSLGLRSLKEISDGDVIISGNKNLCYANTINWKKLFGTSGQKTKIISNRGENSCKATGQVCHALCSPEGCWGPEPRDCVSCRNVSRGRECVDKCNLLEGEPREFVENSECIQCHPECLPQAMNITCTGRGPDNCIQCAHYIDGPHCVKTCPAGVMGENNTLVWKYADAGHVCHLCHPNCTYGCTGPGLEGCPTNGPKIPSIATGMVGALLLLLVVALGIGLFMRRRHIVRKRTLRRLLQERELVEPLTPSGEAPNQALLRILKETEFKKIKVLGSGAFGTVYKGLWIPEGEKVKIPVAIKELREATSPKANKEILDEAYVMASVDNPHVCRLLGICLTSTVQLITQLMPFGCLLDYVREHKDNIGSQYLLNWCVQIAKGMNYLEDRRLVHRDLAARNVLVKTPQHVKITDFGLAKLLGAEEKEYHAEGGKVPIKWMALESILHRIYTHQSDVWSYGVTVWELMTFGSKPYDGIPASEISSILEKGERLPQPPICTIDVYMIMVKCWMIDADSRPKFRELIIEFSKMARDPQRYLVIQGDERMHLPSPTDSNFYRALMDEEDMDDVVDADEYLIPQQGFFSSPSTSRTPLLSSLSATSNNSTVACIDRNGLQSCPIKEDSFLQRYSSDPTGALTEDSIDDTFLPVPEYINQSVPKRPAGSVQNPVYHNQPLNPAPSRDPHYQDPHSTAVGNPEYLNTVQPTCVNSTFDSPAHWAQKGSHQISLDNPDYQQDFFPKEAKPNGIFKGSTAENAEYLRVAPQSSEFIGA

As for `CCN1CCC(Oc2ccc3c(c2)/C(=C(\c2cccc(OC)c2)c2nc4ccccc4[nH]2)C(=O)N3)CC1` [Entry 32, (3Z)-3-{1H-benzimidazol-2-yl[3-(methyloxy)phenyl]methylidene}-5-[(1-ethylpiperidin-4-yl)oxy]-1,3-dihydro-2H-indol-2-one], the half-maximal inhibitory concentration (IC50) (usually the point on the concentration scale where inhibition reaches its midpoint) on Flt-1 was 50 to 500 nM; at PDGFR alpha, less than 50 nM; in assay [1], less than 50 nM; against EGFR, 500 to 5000 nM; against IRK, 0.5 to 5 µM; at EphA2, 500 to 5000 nM. Also, the IC50 against Fyn is less than 50 nM.

Regarding `COc1ccc2[nH]c(/C(=C3\C(=O)Nc4ccc(NC5CC(C)(C)NC(C)(C)C5)cc43)c3ccccc3)nc2c1` [Entry 10, (3Z)-3-[[5-(methyloxy)-1H-benzimidazol-2-yl](phenyl)methylidene]-5-[(2,2,6,6-tetramethylpiperidin-4-yl)amino]-1,3-dihydro-2H-indol-2-one], the IC50 at Flt-1 was 500 to 5000 nM; on PDGFR alpha, 50 to 500 nM; in assay [1], 500 to 5000 nM; on EGFR, 500 to 5000 nM; on IRK, 0.5 to 5 µM; against EphA2, 500 to 5000 nM. The IC50 at Fyn was 500 to 5000 nM.

Take `CCN1CCC(Nc2ccc3c(c2)/C(=C(\c2cccc(C#N)c2)c2nc4ccccc4[nH]2)C(=O)N3)CC1` [Entry 20, 3-((Z)-1H-benzimidazol-2-yl{5-[(1-ethylpiperidin-4-yl)amino]-2-oxo-1,2-dihydro-3H-indol-3-ylidene)methyl) benzonitrile]: the IC50 is 500 to 5000 nM at Flt-1; 50 to 500 nM at PDGFR alpha; less than 50 nM in assay [1]; 500 to 5000 nM at EGFR; 0.5 to 5 µM on IRK; 500 to 5000 nM against EphA2. This compound showed an IC50 against Fyn of 50 to 500 nM.

On to `CCN1CCC(Nc2ccc3c(c2)/C(=C(\c2ccc(N)cc2)c2nc4ccccc4[nH]2)C(=O)N3)CC1` [Entry 11, (3Z)-3-[(4-aminophenyl)(1H-benzimidazol-2-yl)methylidene]-5-[(1-ethylpiperidin-4-yl)amino]1,3-dihydro-2H-indol-2-one], for which the 50% inhibitory concentration (IC50) at Flt-1 is 50 to 500 nM; on PDGFR alpha, less than 50 nM; in assay [1], less than 50 nM; against EGFR, 50 to 500 nM; on IRK, 0.5 to 5 µM; against EphA2, 500 to 5000 nM. The compound further showed an IC50 at Fyn of less than 50 nM.

Regarding `CCN1CCC(Nc2ccc3c(c2)/C(=C(\c2ccccc2)c2nc(CCN4C(=O)c5ccccc5C4=O)c[nH]2)C(=O)N3)CC1` [Entry 28, 2-(2-{2-[(Z)-{5-[(1-ethylpiperidin-4-yl)amino]-2-oxo-1,2-dihydro-3H-indol-3-ylidene}(phenyl)methyl]-1H-imidazol-4-yl}ethyl)-1H-isoindole-1,3(2H)-dione], the IC50 is 50 to 500 nM at Flt-1; less than 50 nM at PDGFR alpha; less than 50 nM in assay [1]; 500 to 5000 nM at EGFR; 0.5 to 5 µM on IRK; 500 to 5000 nM against EphA2. The compound further had an IC50 against Fyn of 50 to 500 nM.

As to `CCN1CCC(Nc2ccc3c(c2)/C(=C(\c2ccc([N+](=O)[O-])cc2)c2nc4ccccc4[nH]2)C(=O)N3)CC1` [Entry 7, (3Z)-3-(1H-benzimidazol-2-yl(4-nitrophenyl)methylidene]-5-[(1-ethylpiperidin-4-yl)amino]-1,3-dihydro-2H-indol-2-one], the IC50 on Flt-1 is 50 to 500 nM; on PDGFR alpha it was less than 50 nM; in assay [1], less than 50 nM; at EGFR, 500 to 5000 nM; at IRK, more than 5 µM; on EphA2 it was more than 5000 nM. Besides, the IC50 against Fyn lay in the range of 50 to 500 nM.

Take `CCN1CCC(Nc2ccc3c(c2)/C(=C(\c2cccc(C(=N)N)c2)c2nc4ccccc4[nH]2)C(=O)N3)CC1` [Entry 23, 3-((Z)-1H-benzimidazol-2-yl{5-[(1-ethylpiperidin-4-yl)amino]-2-oxo-1,2-dihydro-3H-indol-3-ylidene}methyl) benzenecarboximidamide]: the IC50 on Flt-1 fell in the range of 500 to 5000 nM; on PDGFR alpha it was 500 to 5000 nM; in assay [1], 500 to 5000 nM; against EGFR it was 500 to 5000 nM; against IRK, 0.5 to 5 µM; on EphA2 it was 500 to 5000 nM. The same compound gave an IC50 on Fyn of 500 to 5000 nM.

`CS(=O)(=O)N1CCC(Nc2ccc3c(c2)/C(=C(\c2ccccc2)c2nc4ccccc4[nH]2)C(=O)N3)CC1` [Entry 30, (3Z)-3-[1H-benzimidazol-2-yl(phenyl)methylidene]-5-{[1-(methylsulfonyl)piperidin-4-yl]amino}-1,3-dihydro-2H-indol-2-one]: the 50% inhibitory concentration (IC50) at Flt-1 was 500 to 5000 nM; at PDGFR alpha, 500 to 5000 nM; in assay [1], 50 to 500 nM; against EGFR it was 500 to 5000 nM; at IRK, 0.5 to 5 µM; against EphA2 it was 500 to 5000 nM. Besides, the half-inhibitory concentration (IC50) against Fyn lay within 500 to 5000 nM.

Regarding `O=C1Nc2ccc(OC3CCN(Cc4ccccc4)CC3)cc2/C1=C(\c1ccccc1)c1nc2ccccc2[nH]1` [Entry 34, (3Z)-3-[1H-benzimidazol-2-yl(phenyl)methylidene]-5-{(1-(phenylmethyl)piperidin-4-yl]oxy}-1,3-dihydro-2H-indol-2-one], the concentration for half-maximal inhibition (IC50) was 500 to 5000 nM on Flt-1; less than 50 nM on PDGFR alpha; less than 50 nM in assay [1]; 500 to 5000 nM against EGFR; 0.5 to 5 µM on IRK; 500 to 5000 nM against EphA2. This compound also registered an IC50 against Fyn of less than 50 nM.

Turning to `CCN1CCC(Nc2ccc3c(c2)/C(=C(\c2ccc(OC)cc2)c2nc4cc(OC)ccc4[nH]2)C(=O)N3)CC1` [Entry 5, (3Z)-5-[(1-ethylpiperidin-4-yl)amino]-3-{[5-(methyloxy)-1H-benzimidazol-2-yl][4-(methyloxy)phenyl]methylidene}-1,3-dihydro-2H-indol-2-one], the IC50 at Flt-1 is 50 to 500 nM; at PDGFR alpha, less than 50 nM; in assay [1], less than 50 nM; at EGFR, 500 to 5000 nM; at IRK, 0.5 to 5 µM; on EphA2 it was more than 5000 nM. The IC50 at Fyn was less than 50 nM.

In the case of `CCN(CC)CCN1CCC(Nc2ccc3c(c2)/C(=C(\c2cccc(F)c2)c2ncc[nH]2)C(=O)N3)CC1` [Entry 84, (3Z)-5-({1-[2-(diethylamino)ethyl]piperidin-4-yl}amino)-3-[(3-fluorophenyl)(1H-imidazol-2-yl)methylidene]-1,3-dihydro-2H-indol-2-one], the IC50 was 50 to 500 nM on PDGFR alpha; 50 to 500 nM in assay [1]; more than 5000 nM against EGFR; 50 to 500 nM on FGFR1; more than 5 µM at IRK; 500 to 5000 nM at EphA2. On Fyn, this compound registered an IC50 of 50 to 500 nM.

Take `COCCN1CCC(Nc2ccc3c(c2)/C(=C(\c2ccc(C)cc2)c2nc(C)c[nH]2)C(=O)N3)CC1` [Entry 77, (3Z)-3-[(4-methyl-1H-imidazol-2-yl)(4-methylphenyl)methylidene]-5-({1-[2-(methyloxy)ethyl]piperidin-4-yl}amino)-1,3-dihydro-2H-indol-2-one]: the IC50 is less than 50 nM at PDGFR alpha; less than 50 nM in assay [1]; 50 to 500 nM against EGFR; less than 50 nM on FGFR1; 0.5 to 5 µM at IRK; 50 to 500 nM at EphA2. The IC50 at Fyn is less than 50 nM.

As to `O=C1Nc2ccc(NC3CCN(CCN4CCCCC4)CC3)cc2/C1=C(\c1cccc(F)c1)c1ncc[nH]1` [Entry 82], the IC50 is 50 to 500 nM on PDGFR alpha; 50 to 500 nM in assay [1]; more than 5000 nM against EGFR; 50 to 500 nM at FGFR1; more than 5 µM at IRK; 500 to 5000 nM on EphA2. Besides, the IC50 against Fyn fell in the range of 50 to 500 nM.

`COCCN1CCC(Nc2ccc3c(c2)/C(=C(\c2cccc(F)c2)c2nc(C)c[nH]2)C(=O)N3)CC1` [Entry 70, (3Z)-3-[(3-fluorophenyl)(4-methyl-1H-imidazol-2-yl)methylidene]-5-({1-[2-(methyloxy)ethyl]piperidin-4-yl}amino)-1,3-dihydro-2H-indol-2-one]: the IC50 on PDGFR alpha was less than 50 nM; in assay [1] it was less than 50 nM; against EGFR, 50 to 500 nM; on FGFR1, less than 50 nM; against IRK, 0.5 to 5 µM; at EphA2 it was 50 to 500 nM. The same compound displayed an IC50 against Fyn of less than 50 nM.
